In patent US10251932B2, “Preparations containing amorphous emodepside” (Bayer Intellectual Property GmbH, priority 2011, dated 2019):
Values after ≈ are worked out from the molar mass of the structure shown.

Assay: Solubility of emodepside in water
Assay type: physicochemical
Conditions: range of pH 4-10

For `CC(C)CC1C(=O)OC(Cc2ccc(N3CCOCC3)cc2)C(=O)N(C)C(CC(C)C)C(=O)OC(C)C(=O)N(C)C(CC(C)C)C(=O)OC(Cc2ccc(N3CCOCC3)cc2)C(=O)N(C)C(CC(C)C)C(=O)OC(C)C(=O)N1C` [Emodepside, cyclo[(R)-lactoyl-N-methyl-1-leucyl-(R)-3-(p-morpholinophenyl)lactoyl-N-methyl-1-leucyl-(R)-lactoyl-N-methyl-1-leucyl-(R)-3-(p-morpholinophenyl)lactoyl-N-methyl-1-leucyl], which solubility is on record?
The solubility was 5 to 7 µg/mL (≈ 4.47 to 6.25 µM).
